Assay results from ChEMBL document CHEMBL1147997, “Design, synthesis and biological evaluation of new oligopyrrole carboxamides linked with tricyclic DNA-intercalators as potential DNA ligands or topoisomerase inhibitors” (2007).
Active and inactive are the calls of the source. No cut-off for these calls is given here.

What was measured:
[1] = target: T1, DNA topoisomerase 1 (Homo sapiens) (UniProt P11387); assay: Inhibition of human topoisomerase 1 by DNA relaxation assay
T1 sequence (whole entry): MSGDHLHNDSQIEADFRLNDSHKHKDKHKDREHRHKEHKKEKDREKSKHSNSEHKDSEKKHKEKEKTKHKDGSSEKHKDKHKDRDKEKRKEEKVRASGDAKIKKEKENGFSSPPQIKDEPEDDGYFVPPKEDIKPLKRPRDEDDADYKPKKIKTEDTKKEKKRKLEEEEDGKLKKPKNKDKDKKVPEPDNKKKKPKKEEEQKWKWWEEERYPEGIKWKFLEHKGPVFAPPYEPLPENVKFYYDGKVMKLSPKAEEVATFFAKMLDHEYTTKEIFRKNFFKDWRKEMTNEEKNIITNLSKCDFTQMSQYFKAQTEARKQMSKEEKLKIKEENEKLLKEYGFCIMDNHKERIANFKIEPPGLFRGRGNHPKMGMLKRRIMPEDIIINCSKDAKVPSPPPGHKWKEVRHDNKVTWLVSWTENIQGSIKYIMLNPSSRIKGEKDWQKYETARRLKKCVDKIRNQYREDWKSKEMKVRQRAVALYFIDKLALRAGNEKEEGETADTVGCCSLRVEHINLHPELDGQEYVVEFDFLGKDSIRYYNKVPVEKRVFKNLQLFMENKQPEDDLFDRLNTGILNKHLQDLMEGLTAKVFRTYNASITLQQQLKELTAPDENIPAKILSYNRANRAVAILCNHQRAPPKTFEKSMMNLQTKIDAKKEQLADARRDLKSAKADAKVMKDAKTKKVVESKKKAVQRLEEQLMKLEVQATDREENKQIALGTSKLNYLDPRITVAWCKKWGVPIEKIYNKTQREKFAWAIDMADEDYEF

[2] = system: MCF7; assay: Antitumor activity against human MCF7 cells at 0.1 uM assessed as cell growth; type: functional
[3] = system: NCI-H460; assay: Antitumor activity against human NCI-H460 cells at 0.1 uM assessed as cell growth; type: functional
[4] = system: SF-268; assay: Antitumor activity against human SF268 cells at 0.1 uM assessed as cell growth; type: functional
[5] = Growth inhibition of human NCI-H322 M cells; type: functional; details: NCI-H322M
[6] = system: MDA-MB-435; assay: Growth inhibition of human MDA-MB-435 cells; type: functional
[7] = system: UACC-257; assay: Growth inhibition of human UACC257 cells; type: functional

Activity [1]	Compound	Activity [2] [%]	Activity [3] [%]	Activity [4] [%]	other results
inactive	CN(C)CCCNC(=O)c1cc(NC(=O)c2cc(NC(=O)CCNC(=O)c3c4ccccc4nc4ccccc34)cn2C)cn1C				
	CN(C)CCCNC(=O)c1cc(NC(=O)CCNC(=O)c2ccc3c(c2)C(=O)c2ccccc2C3=O)cn1C	32	103	113	
inactive	CN(C)CCCNC(=O)c1cc(NC(=O)c2cc(NC(=O)CCCn3c4ccccc4c(=O)c4ccccc43)cn2C)cn1C	48	47		
inactive	CN(C)CCCNC(=O)c1cc(NC(=O)c2cc(NC(=O)Cn3c4ccccc4c(=O)c4ccccc43)cn2C)cn1C				
inactive	CN(C)CCCNC(=O)c1cc(NC(=O)c2cc(NC(=O)CCCN3C(=O)c4cccc5cc([N+](=O)[O-])cc(c45)C3=O)cn2C)cn1C				
inactive	CN(C)CCCNC(=O)c1cc(NC(=O)c2cc(NC(=O)CCCN3C(=O)c4cccc5cccc(c45)C3=O)cn2C)cn1C				
	CN(C)CCCNC(=O)c1cc(NC(=O)c2cc(NC(=O)CCNS(=O)(=O)c3ccc4c(c3)C(=O)c3ccccc3C4=O)cn2C)cn1C	27	84	98	GI50 [5]: 35.7 µM
	CN(C)CCCNC(=O)c1cc(NC(=O)c2cc(NC(=O)CCCN3c4ccccc4C=Cc4ccccc43)cn2C)cn1C				GI50 [6]: 57.5 µM
	CN(C)CCCNC(=O)c1cc(NC(=O)CCNS(=O)(=O)c2ccc3c(c2)C(=O)c2ccccc2C3=O)cn1C	1	1	2	GI50 [7]: 54.4 µM
	CN(C)CCCNC(=O)c1cc(NC(=O)c2cc(NC(=O)CCn3c4ccccc4c(=O)c4ccccc43)cn2C)cn1C		52		
